Experiments:
[1] = test system: binding of FN to collagen type I; assay: Solid-phase binding assay (competitive ELISA) of FN to collagen; set-up: species or system human FN; rat collagen type I; conditions: 4 nM FN incubated with peptide at 4°C overnight, then on wells coated with 10 μg/ml collagen I overnight at 37°C; anti-FN/HRP, ABTS, A405
Protocol: Human FN and rat collagen type I for competitive ELISA were purchased from Sigma-Aldrich (St. Louis, MO).
The FN-peptide solutions were added to collagen or BSA-coated wells, and the plates were incubated overnight at 37°C. The wells were washed and a rabbit anti-FN antibody was added for 90 minutes at room temperature. Wells were washed and then incubated with a horseradish peroxidase-conjugated secondary antibody. After washing was completed, peroxidase activity was quantified using 2,2'-azino-bis-(3-ethylbenthiazoline-6-sulfonic acid). Measurements were done at 405 nm (A405) using a SpectraMax M5 microplate reader (Molecular Device, Sunnyvale, CA).
Bound FN was detected with an anti-FN antibody followed by HRP-conjugated secondary antibody, and ABTS as described in Methods. The absorbance at 405nm was quantitated.

[2] = test system: left common carotid artery (flow-induced vascular remodeling); assay: Morphometric analysis of carotid artery after complete common carotid ligation; assay type: in vivo, FVB/NJ (FVB) mice; conditions: periadventitial
Text: (§1) Animals were anesthetized with isoflurane inhalation. The left common carotid artery was exposed, dissected free from the surrounding connective tissue and completely ligated with 6-0 silk suture just proximal to the carotid bifurcation. […] 4–10 mice were included in each experimental group.
5 groups of animals were processed for morphometric analysis. Mice were fixed with 10% formalin 7 or 14 days after the surgery. The common carotid arteries were harvested and embedded in paraffin.
(§2) For in vivo experiments, the data are shown as the mean ± SEM. For in vitro experiments, the data shown are the means ± SD of a representative experiment, at least 3 independent experiments were performed. One-way ANOVA with post-hoc testing were used for data analysis with GraphPad Prism software (GraphPad, San Diego, CA). If normality test failed, nonparametric Kruskal-Wallis test followed by Dunn's post-hoc test were used. P > 0.05 was not considered significant.

collagen type I = assay: IHC for collagen type I in ligated carotid artery; assay type: in vivo, FVB/NJ (FVB) mice; conditions: 7 days after surgery; 20 μM peptide in pluronic gel; mean ± SEM; R1R2 n = 6, scrambled n = 6
Protocol: as §1
(§3) Paraffin sections selected from the first mm of the carotid artery in each group were used for immunohistochemistry (IHC). […] Sections were then incubated with appropriate biotinylated secondary antibodies followed by avidin-biotin immunoperoxidase system (Vector Laboratories, Burlingame, CA). Liquid DAB Substrate Chromogen system (Dako, Carpinteria, CA) was used for detection.
(§4) Quantitative IHC analysis was performed on digital images captured with a 20x objective by using Image-Pro Plus software. Data from 3–6 mice for each group were averaged, and the average values ± SEM were shown. For FN, collagen type I, SM-MHC and SM α-actin, color digital images were transformed into gray scale, and the sum of the optical densities from the intima+media area in each section was determined. […] The percent of positive cells is reported as the proliferation index. […] The intima+media region was traced manually. The percent of positively stained area in intima+media to the total traced area was assessed.
(§5) For in vivo experiments, the data are shown as the mean ± SEM. […]

collagen = assay: Hydroxyproline assay of carotid collagen content; assay type: in vivo, FVB/NJ (FVB) mice; conditions: 14 days post-ligation; three carotid arteries pooled per group; colorimetric chloramine T; mean ± SEM, n = 3
Protocol: as §1
After reconstituting with water, samples were measured using a colorimetric chloramine T assay. Three independent experiments were performed for statistical analysis.
as §2

FN = assay: IHC for FN in ligated carotid artery; assay type: in vivo, FVB/NJ (FVB) mice; conditions: mean ± SEM
Protocol: as §1, §3, §4, §2

[3] = test system: smooth muscle α-actin (SMAA); assay: IHC for smooth muscle α-actin in ligated carotid artery; assay type: in vivo, FVB/NJ (FVB) mice; conditions: 7 days post-ligation; mean ± SEM; scrambled n = 6, R1R2 n = 5 (sham 0.232 ± 0.011, n = 5)
Protocol: as §1, §3, §4, §5

CD45 (+) leukocytes = assay: CD45 IHC, leukocyte infiltration in carotid intima-media; assay type: in vivo, FVB/NJ (FVB) mice; conditions: 7 days after ligation; percent of positively stained area; mean ± SEM; R1R2 n = 5, scrambled n = 6
Protocol: as §1, §3, §4, §2

VCAM-1 = VCAM-1 IHC in ligated carotid artery; assay type: in vivo, FVB/NJ (FVB) mice; conditions: 7 days after ligation; percent of positively stained area; mean ± SEM; R1R2 n = 7, control peptide n = 9
Protocol: as §1, §3, §4, §5

ICAM-1 = ICAM-1 IHC in ligated carotid artery; assay type: in vivo, FVB/NJ (FVB) mice; conditions: 7 days after ligation; percent of positively stained area; mean ± SEM; R1R2 n = 7, control peptide n = 8
Protocol: as §1, §3, §4, §5

A7r5 SMCs [4] = assay: A7r5 SMC growth study; assay type: cell-based; conditions: 48hr; 10% FBS after serum starvation and 36 hours peptide treatment; hemocytometer, trypan blue; mean ± SD, n = 5
Protocol: (§6) Human umbilical vein endothelial cells (HUVECs) and A7r5 SMCs were provided by Resource Center (SB3, NSC 100-2325-B-080-001), National Research Program for Biopharmaceuticals (Hsinchu, Taiwan). HUVECs were maintained in M199 (Life Technologies, Carlsbad, CA) with 25U/ml heparin (Sigma-Aldrich, St. Louis, MO), 10% fetal bovine serum (FBS) and endothelial cell growth supplement (ECGS; Millipore, Billerica, MA). A7r5 SMCs were grown in Dulbecco’s Modified Eagle’s Medium (DMEM) containing high glucose, supplemented with 10% fetal bovine serum. Human U937 cells were grown in RPMI1640 with 10% FBS.
A7r5 cells and HUVECs were growth-arrested and then stimulated with 10% FBS or 10 ng/ml TNF-αovernight after serum starvation as indicated in the figure legend. Briefly, trypan blue-excluding cells were counted with a hemocytometer, and data were analyzed using GraphPad Prism Software (San Diego, CA) as in previous studies. A second observer performed a similar analysis to verify the initial findings.
as §2
Fig 6 R1R2 reduces SMC proliferation and migration. (A) A7r5 SMC growth study over 96 hours. After serum starvation and treatment with R1R2 or scrambled peptides for 36 hours, cells were stimulated with 10% FBS over 96 hours. Cells were counted at the indicated time in the figure (n = 5). (B) A7r5 SMCs were pretreated with R1R2 or scramble peptide for 36 hours. […] (C) Quantitation of SMC migration in the scratch wound healing assay was performed by subtracting the cell-free area 30 hours after PDGF-BB stimulation from the cell-free area in the beginning (n = 5). * indicates p<0.05 and ** p< 0.01.

A7r5 SMCs [5] = assay: SMC migration, scrape wound assay; assay type: cell-based; conditions: A7r5 SMCs, 36 hours peptide pretreatment, 10 ng/ml PDGF-BB, 30 hours; mean ± SD, n = 3
Protocol: as §6
A scrape wound assay was used to assess the effect of R1R2 and scrambled peptides on SMC migration as described. Briefly, A7r5 SMCs were grown until 90% confluent, followed by serum starvation and treatment with R1R2 and scrambled peptides for 36 hours. Several scrape wounds were then performed across the dish with a sterile yellow pipet tip. We initiated the experiment with treatment of cells with 10 ng/ml PDGF-BB. Photographs of the wound area were taken immediately after PDGF-BB addition (0 hour) and 30 hours postwounding with an Olympus CKX-41 microscope connected to a camera. At least three photographs were taken per group at each time point. Wound areas were determined using Image-Pro Software (Media Cybernetics, MD). Measurement of migration was determined by subtracting the cell-free area 30 hours after PDGF-BB addition from the cell-free area in the beginning of scrape wounds.
For in vivo experiments, the data are shown as the mean ± SEM. For in vitro experiments, the data shown are the means ± SD of a representative experiment, at least 3 independent experiments were performed. […]
Fig 6 R1R2 reduces SMC proliferation and migration. […] Cells were counted at the indicated time in the figure (n = 5). […] (C) Quantitation of SMC migration in the scratch wound healing assay was performed by subtracting the cell-free area 30 hours after PDGF-BB stimulation from the cell-free area in the beginning (n = 5). * indicates p<0.05 and ** p< 0.01.

U937 cells / HUVECs [6] = assay: Monocyte U937 adhesion to HUVECs; assay type: cell-based, human; conditions: HUVECs treated with 10 ng/ml TNF-α; calcein-AM U937 5x10^5 cells/well, 30 minutes at 37°C; fluorescence 485/535; mean ± SD
Protocol: as §2

U937 cells / HUVECs [7] = assay: Monocyte U937 transendothelial migration assay; assay type: cell-based, human; conditions: HUVECs on 5um transwells, 10 ng/ml TNF-α; U937 1.5x10^5 cells/transwell, 1.5 hours at 37°C; fluorescence 485/535; mean ± SD
Protocol: as §2

[8] = 7 day after ligation, 20 μM peptide in 50 μl F-127 pluronic gel, mean ± SEM, scrambled n = 4, R1R2 n = 10
[9] = 14 day after ligation, 20 μM peptide in 50 μl F-127 pluronic gel, mean ± SEM, scrambled n = 4, R1R2 n = 9

Question: What does the source list for “PGPGAEQPEQSKERNSQERGNGLALPGEELEGQEGGNKPSGENNGPPQGNLRGPLEG [scrambled peptide, reference compound]”?
Answer: effect on FN-collagen type I binding [1]: had no effect on FN-collagen binding; effect on neointimal formation ([2]; 7 and 14 days post-ligation, 20 μM peptide in pluronic gel, in words): have no effect on neointimal formation; EEL Area [2, 8]: 91403 ± 3805 (n = 4) μm^2; Lumen [2, 8]: 44901 ± 4552 (n = 4) μm^2; EEL Area [2, 9]: 92240 ± 13572 (n = 4) μm^2; Intima+Media [2, 9]: 65441 ± 11973 (n = 4) μm^2; Lumen [2, 9]: 37551 ± 11976 (n = 4) μm^2; collagen type I IHC intensity in intima-media area (collagen type I): 0.198 ± 0.007; collagen content, hydroxyproline assay (collagen): 2.133 ± 0.284; FN IHC intensity in intima-media area (FN; 7 days after ligation, R1R2 n = 6, scrambled n = 6): 0.144 ± 0.005; FN IHC intensity in intima-media area (FN; 14 days after ligation, R1R2 n = 7, scrambled n = 7): 0.338 ± 0.016; SMAA IHC staining in intima-media area [3]: 0.176 ± 0.004; CD45 (+) area in intima-media (CD45 (+) leukocytes): 0.441 ± 0.049%; VCAM-1 (+) area in intima-media (VCAM-1): 25.72 ± 1.966%; ICAM-1 (+) area in intima-media (ICAM-1): 30.39 ± 3.016%; A7r5 SMC growth, cell number (A7r5 SMCs [4]): 2.740 ± 0.688 x 10^5; SMC migration (cell-free area at 0 h minus cell-free area at 30 hours) (A7r5 SMCs [5]): 313537 ± 66925; U937 adhesion to HUVECs (U937 cells / HUVECs [6]): 259093 ± 14720 cells per cm^2; U937 transendothelial migration (U937 cells / HUVECs [7]): 110055 ± 42517 cells per well

From publication PMC4326127, “Collagen Inhibitory Peptide R1R2 Mediates Vascular Remodeling by Decreasing Inflammation and Smooth Muscle Cell Activation” (PLoS ONE, 2015)
